Experimental data reported in the kinase profiling compilation of Christmann-Franck et al. (2016).

Assays:
Assay in all cases: KINOMEscan competition binding
Conditions in all cases: compound 10.0 µM
[1] = molecular target: ACVR2B (human) (UniProt Q13705)
[2] = molecular target: BMP2K (human) (UniProt Q9NSY1)
[3] = molecular target: CDK16 (human) (UniProt Q00536)
[4] = molecular target: CDK7 (human) (UniProt P50613)
[5] = molecular target: CLK2 (human) (UniProt P49760)
[6] = molecular target: CLK3 (human) (UniProt P49761)
[7] = molecular target: CSNK1E (human) (UniProt P49674)
[8] = molecular target: CSNK2A1 (human) (UniProt P68400)
[9] = molecular target: DAPK2 (human) (UniProt Q9UIK4)
[10] = molecular target: DAPK3 (human) (UniProt O43293)
[11] = molecular target: DCLK3 (human) (UniProt Q9C098)
[12] = molecular target: DMPK (human) (UniProt Q09013)
[13] = system: EGFR (human), P00533 [747-751 del / S ins]
[14] = system: FLT3 (human), P36888 [D835Y]
[15] = system: FLT3 (human), P36888 [N841I]
[16] = molecular target: HIPK1 (human) (UniProt Q86Z02)
[17] = molecular target: JAK3 JH1 catalytic (human) (UniProt P52333)
[18] = system: KIT (human), P10721 [D816V]
[19] = system: KIT (human), P10721 [V559D/T670I]
[20] = system: KIT (human), P10721 [V559D/V654A]
[21] = system: KIT (human), P10721 [V559D]
[22] = molecular target: MAP2K4 (human) (UniProt P45985)
[23] = molecular target: MAP4K2 (human) (UniProt Q12851)
[24] = molecular target: MINK1 (human) (UniProt Q8N4C8)
[25] = molecular target: MKNK1 (human) (UniProt Q9BUB5)
[26] = molecular target: MYLK (human) (UniProt Q15746)
Chain of MYLK (human) (Q15746 whole entry, looked up): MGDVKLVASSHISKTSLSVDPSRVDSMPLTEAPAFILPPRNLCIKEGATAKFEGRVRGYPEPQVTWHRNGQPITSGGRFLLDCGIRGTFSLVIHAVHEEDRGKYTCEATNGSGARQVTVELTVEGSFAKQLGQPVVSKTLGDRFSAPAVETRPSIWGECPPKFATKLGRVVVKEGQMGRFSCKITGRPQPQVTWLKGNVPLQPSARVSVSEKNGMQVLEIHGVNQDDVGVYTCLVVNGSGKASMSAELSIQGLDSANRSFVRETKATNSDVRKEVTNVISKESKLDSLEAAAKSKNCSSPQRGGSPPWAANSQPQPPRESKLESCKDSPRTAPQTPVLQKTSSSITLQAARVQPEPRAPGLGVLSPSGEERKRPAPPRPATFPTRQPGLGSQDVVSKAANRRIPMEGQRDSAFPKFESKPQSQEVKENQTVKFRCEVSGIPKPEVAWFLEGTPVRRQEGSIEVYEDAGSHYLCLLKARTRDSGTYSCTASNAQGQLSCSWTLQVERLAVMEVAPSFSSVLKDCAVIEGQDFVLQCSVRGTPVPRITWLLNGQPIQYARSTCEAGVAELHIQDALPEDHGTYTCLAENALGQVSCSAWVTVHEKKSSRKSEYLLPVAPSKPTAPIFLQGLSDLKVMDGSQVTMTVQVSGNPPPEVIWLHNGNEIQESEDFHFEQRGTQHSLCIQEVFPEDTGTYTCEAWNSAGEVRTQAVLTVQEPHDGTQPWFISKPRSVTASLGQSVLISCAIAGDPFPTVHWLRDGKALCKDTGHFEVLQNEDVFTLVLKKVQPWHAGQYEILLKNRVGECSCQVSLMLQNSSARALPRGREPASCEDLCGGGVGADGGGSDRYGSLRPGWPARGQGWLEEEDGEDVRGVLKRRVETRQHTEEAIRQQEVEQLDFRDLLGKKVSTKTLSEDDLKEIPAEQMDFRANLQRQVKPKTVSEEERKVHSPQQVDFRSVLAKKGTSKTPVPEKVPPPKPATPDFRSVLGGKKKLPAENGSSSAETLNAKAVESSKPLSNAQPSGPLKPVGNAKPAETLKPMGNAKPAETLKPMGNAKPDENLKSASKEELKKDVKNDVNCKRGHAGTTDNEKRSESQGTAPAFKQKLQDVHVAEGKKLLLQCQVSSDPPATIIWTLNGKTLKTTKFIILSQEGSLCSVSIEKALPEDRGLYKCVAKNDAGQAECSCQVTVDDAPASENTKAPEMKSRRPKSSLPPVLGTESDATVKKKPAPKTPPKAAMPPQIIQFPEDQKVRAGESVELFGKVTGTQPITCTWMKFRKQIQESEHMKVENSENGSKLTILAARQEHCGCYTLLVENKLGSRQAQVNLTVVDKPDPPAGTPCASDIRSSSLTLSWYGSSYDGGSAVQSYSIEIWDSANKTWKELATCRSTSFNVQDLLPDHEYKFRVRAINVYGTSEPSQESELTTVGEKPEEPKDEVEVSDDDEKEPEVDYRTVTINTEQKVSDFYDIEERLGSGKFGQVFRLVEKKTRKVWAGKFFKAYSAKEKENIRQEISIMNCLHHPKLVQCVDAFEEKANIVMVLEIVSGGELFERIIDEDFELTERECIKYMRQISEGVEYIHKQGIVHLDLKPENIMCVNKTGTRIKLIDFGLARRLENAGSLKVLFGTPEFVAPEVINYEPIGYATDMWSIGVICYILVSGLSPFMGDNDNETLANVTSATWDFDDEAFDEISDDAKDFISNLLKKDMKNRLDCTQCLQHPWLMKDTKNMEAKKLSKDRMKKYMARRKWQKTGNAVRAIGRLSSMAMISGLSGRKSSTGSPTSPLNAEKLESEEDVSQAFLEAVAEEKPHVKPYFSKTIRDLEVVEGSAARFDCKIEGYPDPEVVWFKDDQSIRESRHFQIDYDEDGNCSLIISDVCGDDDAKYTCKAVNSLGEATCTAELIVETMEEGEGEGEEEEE

[27] = molecular target: MYLK4 (human) (UniProt Q86YV6)
Chain of MYLK4 (human) (Q86YV6 whole entry, looked up): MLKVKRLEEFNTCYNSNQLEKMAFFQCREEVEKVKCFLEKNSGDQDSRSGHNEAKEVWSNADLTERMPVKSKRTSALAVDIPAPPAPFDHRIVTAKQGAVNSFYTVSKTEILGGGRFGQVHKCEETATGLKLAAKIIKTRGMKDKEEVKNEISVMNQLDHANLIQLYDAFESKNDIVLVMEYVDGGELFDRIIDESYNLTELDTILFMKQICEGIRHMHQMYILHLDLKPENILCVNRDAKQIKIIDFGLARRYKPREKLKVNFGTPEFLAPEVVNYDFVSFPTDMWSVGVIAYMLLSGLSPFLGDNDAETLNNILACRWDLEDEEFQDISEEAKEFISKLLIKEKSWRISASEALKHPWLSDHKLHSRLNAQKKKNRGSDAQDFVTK

[28] = molecular target: NEK2 (human) (UniProt P51955)
[29] = molecular target: PHKG2 (human) (UniProt P15735)
[30] = molecular target: PIM1 (human) (UniProt P11309)
[31] = molecular target: PIM3 (human) (UniProt Q86V86)
[32] = molecular target: PIP4K2B (human) (UniProt P78356)
[33] = molecular target: PIP5K1A (human) (UniProt Q99755)
[34] = molecular target: PRKD1 (human) (UniProt Q15139)
Chain of PRKD1 (human) (Q15139 whole entry, looked up): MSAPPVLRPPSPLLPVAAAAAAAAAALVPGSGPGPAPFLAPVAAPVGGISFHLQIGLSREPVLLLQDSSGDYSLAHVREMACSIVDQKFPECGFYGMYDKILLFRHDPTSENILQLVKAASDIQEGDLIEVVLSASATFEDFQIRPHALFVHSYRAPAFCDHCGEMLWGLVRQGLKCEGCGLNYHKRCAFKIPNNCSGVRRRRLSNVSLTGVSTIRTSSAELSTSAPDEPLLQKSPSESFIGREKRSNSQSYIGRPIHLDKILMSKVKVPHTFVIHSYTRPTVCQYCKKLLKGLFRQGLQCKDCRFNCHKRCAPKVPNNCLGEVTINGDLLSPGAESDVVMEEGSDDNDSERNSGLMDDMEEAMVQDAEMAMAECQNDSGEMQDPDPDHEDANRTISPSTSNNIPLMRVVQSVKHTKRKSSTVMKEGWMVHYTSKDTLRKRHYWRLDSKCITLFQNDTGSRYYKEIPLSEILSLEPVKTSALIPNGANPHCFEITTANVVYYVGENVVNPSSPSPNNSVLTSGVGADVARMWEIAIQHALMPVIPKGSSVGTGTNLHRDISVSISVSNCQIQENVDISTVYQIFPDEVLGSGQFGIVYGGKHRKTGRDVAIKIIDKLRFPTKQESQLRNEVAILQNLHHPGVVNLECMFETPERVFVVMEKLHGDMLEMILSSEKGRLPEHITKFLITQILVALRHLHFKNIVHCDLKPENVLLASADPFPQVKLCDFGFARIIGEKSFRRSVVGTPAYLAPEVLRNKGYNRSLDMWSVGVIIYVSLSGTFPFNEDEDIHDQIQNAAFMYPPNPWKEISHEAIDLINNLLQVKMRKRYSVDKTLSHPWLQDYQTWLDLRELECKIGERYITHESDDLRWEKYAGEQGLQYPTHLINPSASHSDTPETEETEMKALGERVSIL

[35] = molecular target: RIPK2 (human) (UniProt O43353)
[36] = molecular target: RPS6KA6 KD2 (human) (UniProt Q9UK32)
[37] = molecular target: SRPK2 (human) (UniProt P78362)
[38] = molecular target: STK17A (human) (UniProt Q9UEE5)
[39] = molecular target: STK33 (human) (UniProt Q9BYT3)
[40] = molecular target: TAOK1 (human) (UniProt Q7L7X3)
Chain of TAOK1 (human) (Q7L7X3 whole entry, looked up): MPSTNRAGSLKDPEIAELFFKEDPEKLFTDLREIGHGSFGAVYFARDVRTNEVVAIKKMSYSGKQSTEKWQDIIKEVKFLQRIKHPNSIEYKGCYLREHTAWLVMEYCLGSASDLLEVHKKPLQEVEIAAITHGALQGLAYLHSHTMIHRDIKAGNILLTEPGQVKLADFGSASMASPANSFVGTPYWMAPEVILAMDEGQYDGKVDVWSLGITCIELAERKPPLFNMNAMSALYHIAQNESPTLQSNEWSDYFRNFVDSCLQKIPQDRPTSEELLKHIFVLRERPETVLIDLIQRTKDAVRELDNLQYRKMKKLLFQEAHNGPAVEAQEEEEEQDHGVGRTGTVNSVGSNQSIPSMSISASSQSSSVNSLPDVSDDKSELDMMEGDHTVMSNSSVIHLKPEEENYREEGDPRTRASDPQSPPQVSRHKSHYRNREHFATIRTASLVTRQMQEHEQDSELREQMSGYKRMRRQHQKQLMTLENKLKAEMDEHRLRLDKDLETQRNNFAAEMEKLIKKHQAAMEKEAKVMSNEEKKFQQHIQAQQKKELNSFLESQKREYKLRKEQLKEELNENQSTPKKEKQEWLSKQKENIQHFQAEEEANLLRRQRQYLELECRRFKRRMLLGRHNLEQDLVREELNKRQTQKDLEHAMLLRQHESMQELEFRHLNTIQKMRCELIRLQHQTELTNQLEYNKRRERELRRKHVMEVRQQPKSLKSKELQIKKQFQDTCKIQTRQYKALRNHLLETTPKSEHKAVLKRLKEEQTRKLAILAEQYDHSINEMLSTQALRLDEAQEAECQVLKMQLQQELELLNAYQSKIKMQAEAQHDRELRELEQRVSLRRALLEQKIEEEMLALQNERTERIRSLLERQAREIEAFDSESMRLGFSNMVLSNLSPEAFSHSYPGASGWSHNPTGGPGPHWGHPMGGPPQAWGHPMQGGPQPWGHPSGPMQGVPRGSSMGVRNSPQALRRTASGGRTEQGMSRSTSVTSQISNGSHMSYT

[41] = molecular target: TGFBR2 (human) (UniProt P37173)
[42] = molecular target: TNK1 (human) (UniProt Q13470)

Chain of CLK2 (human) (P49760 whole entry, looked up): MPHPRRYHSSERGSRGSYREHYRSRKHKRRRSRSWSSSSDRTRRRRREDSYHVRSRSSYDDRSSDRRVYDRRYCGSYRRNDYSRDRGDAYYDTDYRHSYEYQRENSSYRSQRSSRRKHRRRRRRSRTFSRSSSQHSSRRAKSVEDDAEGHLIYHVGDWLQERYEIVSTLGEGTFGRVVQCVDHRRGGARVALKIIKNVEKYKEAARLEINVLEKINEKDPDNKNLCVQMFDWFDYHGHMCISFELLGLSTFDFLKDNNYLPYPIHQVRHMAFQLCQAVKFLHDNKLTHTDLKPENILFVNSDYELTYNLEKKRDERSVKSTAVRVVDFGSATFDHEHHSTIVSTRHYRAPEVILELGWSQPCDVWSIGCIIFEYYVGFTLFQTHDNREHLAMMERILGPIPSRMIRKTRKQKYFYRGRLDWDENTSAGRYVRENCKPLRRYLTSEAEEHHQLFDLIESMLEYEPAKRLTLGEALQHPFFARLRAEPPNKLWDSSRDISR
Chain of CDK7 (human) (P50613 whole entry, looked up): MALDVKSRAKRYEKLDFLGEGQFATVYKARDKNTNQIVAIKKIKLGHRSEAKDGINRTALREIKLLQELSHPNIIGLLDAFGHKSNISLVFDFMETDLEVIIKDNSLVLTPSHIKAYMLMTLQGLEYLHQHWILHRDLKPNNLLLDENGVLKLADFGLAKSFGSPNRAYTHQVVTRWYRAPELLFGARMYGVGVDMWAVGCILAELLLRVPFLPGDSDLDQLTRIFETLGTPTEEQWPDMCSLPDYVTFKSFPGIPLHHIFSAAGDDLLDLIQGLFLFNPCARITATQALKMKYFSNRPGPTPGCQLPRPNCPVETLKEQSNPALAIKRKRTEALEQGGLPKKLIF

## COc1cc(N2CCC(O)CC2)ccc1Nc1ncc2c(n1)N1CCc3cccc(c31)C(=O)N2C
[1]
  kinase still bound, per cent of control: 100%
[2]
  kinase still bound, per cent of control: 84%
[3]
  kinase still bound, per cent of control: 94%
[4]
  kinase still bound, per cent of control: 83%
[5]
  kinase still bound, per cent of control: 55%
[6]
  kinase still bound, per cent of control: 100%
[7]
  kinase still bound, per cent of control: 92%
[8]
  kinase still bound, per cent of control: 100%
[9]
  kinase still bound, per cent of control: 36%
[10]
  kinase still bound, per cent of control: 37%
[11]
  kinase still bound, per cent of control: 84%
[12]
  kinase still bound, per cent of control: 65%
[13]
  kinase still bound, per cent of control: 64%
[14]
  kinase still bound, per cent of control: 68%
[15]
  kinase still bound, per cent of control: 93%
[16]
  kinase still bound, per cent of control: 73%
[17]
  kinase still bound, per cent of control: 86%
[18]
  kinase still bound, per cent of control: 76%
[19]
  kinase still bound, per cent of control: 79%
[20]
  kinase still bound, per cent of control: 100%
[21]
  kinase still bound, per cent of control: 93%
[22]
  kinase still bound, per cent of control: 82%
[23]
  kinase still bound, per cent of control: 94%
[24]
  kinase still bound, per cent of control: 60%
[25]
  kinase still bound, per cent of control: 48%
[26]
  kinase still bound, per cent of control: 16%
[27]
  kinase still bound, per cent of control: 100%
[28]
  kinase still bound, per cent of control: 62%
[29]
  kinase still bound, per cent of control: 68%
[30]
  kinase still bound, per cent of control: 91%
[31]
  kinase still bound, per cent of control: 92%
[32]
  kinase still bound, per cent of control: 100%
[33]
  kinase still bound, per cent of control: 91%
[34]
  kinase still bound, per cent of control: 12%
[35]
  kinase still bound, per cent of control: 100%
[36]
  kinase still bound, per cent of control: 3.2%
[37]
  kinase still bound, per cent of control: 100%
[38]
  kinase still bound, per cent of control: 100%
[39]
  kinase still bound, per cent of control: 3.3%
[40]
  kinase still bound, per cent of control: 60%
[41]
  kinase still bound, per cent of control: 100%
[42]
  kinase still bound, per cent of control: 5.8%

## COc1cc(N2CCN(C)CC2)ccc1Nc1ncc2c(n1)N(C)c1ccccc1N(C)C2=O
[1]
  kinase still bound, per cent of control: 92%
[2]
  kinase still bound, per cent of control: 100%
[3]
  kinase still bound, per cent of control: 93%
[4]
  kinase still bound, per cent of control: 100%
[5]
  kinase still bound, per cent of control: 81%
[6]
  kinase still bound, per cent of control: 100%
[7]
  kinase still bound, per cent of control: 56%
[8]
  kinase still bound, per cent of control: 88%
[9]
  kinase still bound, per cent of control: 84%
[10]
  kinase still bound, per cent of control: 98%
[11]
  kinase still bound, per cent of control: 100%
[12]
  kinase still bound, per cent of control: 100%
[13]
  kinase still bound, per cent of control: 92%
[14]
  kinase still bound, per cent of control: 75%
[15]
  kinase still bound, per cent of control: 92%
[16]
  kinase still bound, per cent of control: 68%
[17]
  kinase still bound, per cent of control: 100%
[18]
  kinase still bound, per cent of control: 100%
[19]
  kinase still bound, per cent of control: 84%
[20]
  kinase still bound, per cent of control: 100%
[21]
  kinase still bound, per cent of control: 95%
[22]
  kinase still bound, per cent of control: 98%
[23]
  kinase still bound, per cent of control: 100%
[24]
  kinase still bound, per cent of control: 100%
[25]
  kinase still bound, per cent of control: 100%
[26]
  kinase still bound, per cent of control: 97%
[27]
  kinase still bound, per cent of control: 100%
[28]
  kinase still bound, per cent of control: 96%
[29]
  kinase still bound, per cent of control: 15%
[30]
  kinase still bound, per cent of control: 91%
[31]
  kinase still bound, per cent of control: 84%
[32]
  kinase still bound, per cent of control: 91%
[33]
  kinase still bound, per cent of control: 95%
[34]
  kinase still bound, per cent of control: 87%
[35]
  kinase still bound, per cent of control: 100%
[36]
  kinase still bound, per cent of control: 60%
[37]
  kinase still bound, per cent of control: 100%
[38]
  kinase still bound, per cent of control: 100%
[39]
  kinase still bound, per cent of control: 58%
[40]
  kinase still bound, per cent of control: 100%
[41]
  kinase still bound, per cent of control: 98%
[42]
  kinase still bound, per cent of control: 4.9%
